Laboratory results: PubChem BioAssay AID1259407 (Chemical Carcinogenesis Research Information System (CCRIS), 2018)
Activity calls are given as the source filed them. No rule for the calls is given here.

Test system: CCRIS mutagenicity, Ames/micronucleus/aberration tests
Assay: CCRIS mutagenicity studies
[1] = Test System: AMES SALMONELLA TYPHIMURIUM, Strain/Indicator: TA98, Metabolic Activation: NONE, Method: STANDARD PLATE
[2] = Test System: AMES SALMONELLA TYPHIMURIUM, Strain/Indicator: TA100, Metabolic Activation: NONE, Method: STANDARD PLATE
[3] = Test System: AMES SALMONELLA TYPHIMURIUM, Strain/Indicator: TA100, Metabolic Activation: RAT, LIVER, S-9, AROCLOR 1254, Method: STANDARD PLATE
[4] = Test System: AMES SALMONELLA TYPHIMURIUM, Strain/Indicator: TA98, Metabolic Activation: NONE, Method: PREINCUBATION
[5] = Test System: AMES SALMONELLA TYPHIMURIUM, Strain/Indicator: TA100, Metabolic Activation: NONE, Method: PREINCUBATION

Measured: mutagenic call

CC(=O)NC[C@H](O)COc1cccc2ccccc12
inactive: Test System: AMES SALMONELLA TYPHIMURIUM, Strain/Indicator: TA98, Metabolic Activation: RAT, LIVER, S-9, AROCLOR 1254, Method: PREINCUBATION inactive; negative | Test System: AMES SALMONELLA TYPHIMURIUM, Strain/Indicator: TA100, Metabolic Activation: RAT, LIVER, S-9, AROCLOR 1254, Method: PREINCUBATION inactive; negative | Test System: AMES SALMONELLA TYPHIMURIUM, Strain/Indicator: TA1535, Metabolic Activation: RAT, LIVER, S-9, AROCLOR 1254, Method: PREINCUBATION inactive; negative | Test System: AMES SALMONELLA TYPHIMURIUM, Strain/Indicator: TA1538, Metabolic Activation: RAT, LIVER, S-9, AROCLOR 1254, Method: PREINCUBATION inactive; negative | Test System: AMES SALMONELLA TYPHIMURIUM, Strain/Indicator: YG1021, Metabolic Activation: RAT, LIVER, S-9, AROCLOR 1254, Method: PREINCUBATION inactive; negative | Test System: AMES SALMONELLA TYPHIMURIUM, Strain/Indicator: YG1024, Metabolic Activation: RAT, LIVER, S-9, AROCLOR 1254, Method: PREINCUBATION inactive; negative | Test System: AMES SALMONELLA TYPHIMURIUM, Strain/Indicator: YG1026, Metabolic Activation: RAT, LIVER, S-9, AROCLOR 1254, Method: PREINCUBATION inactive; negative | Test System: AMES SALMONELLA TYPHIMURIUM, Strain/Indicator: YG1041, Metabolic Activation: RAT, LIVER, S-9, AROCLOR 1254, Method: PREINCUBATION inactive; negative | Test System: AMES SALMONELLA TYPHIMURIUM, Strain/Indicator: YG1042, Metabolic Activation: RAT, LIVER, S-9, AROCLOR 1254, Method: PREINCUBATION inactive; negative
active: Test System: AMES SALMONELLA TYPHIMURIUM, Strain/Indicator: TA104, Metabolic Activation: RAT, LIVER, S-9, AROCLOR 1254, Method: PREINCUBATION active; positive | Test System: AMES SALMONELLA TYPHIMURIUM, Strain/Indicator: YG1029, Metabolic Activation: RAT, LIVER, S-9, AROCLOR 1254, Method: PREINCUBATION active; positive | Test System: AMES SALMONELLA TYPHIMURIUM, Strain/Indicator: YG3003, Metabolic Activation: RAT, LIVER, S-9, AROCLOR 1254, Method: PREINCUBATION active; positive

CC1(C)[C@H](C(=O)OCc2cccc(Oc3ccccc3)c2)[C@@H]1C=C(Cl)Cl
inactive: Test System: AMES SALMONELLA TYPHIMURIUM, Strain/Indicator: TA97, Metabolic Activation: NONE, Method: STANDARD PLATE inactive; negative | Test System: AMES SALMONELLA TYPHIMURIUM, Strain/Indicator: TA97, Metabolic Activation: RAT, LIVER, S-9, PHENOBARBITONE, Method: STANDARD PLATE inactive; negative | [1] inactive; negative | Test System: AMES SALMONELLA TYPHIMURIUM, Strain/Indicator: TA98, Metabolic Activation: RAT, LIVER, S-9, PHENOBARBITONE, Method: STANDARD PLATE inactive; negative | [2] inactive; negative | Test System: AMES SALMONELLA TYPHIMURIUM, Strain/Indicator: TA100, Metabolic Activation: RAT, LIVER, S-9, PHENOBARBITONE, Method: STANDARD PLATE inactive; negative | Test System: AMES SALMONELLA TYPHIMURIUM, Strain/Indicator: TA104, Metabolic Activation: NONE, Method: STANDARD PLATE inactive; negative | Test System: AMES SALMONELLA TYPHIMURIUM, Strain/Indicator: TA104, Metabolic Activation: RAT, LIVER, S-9, PHENOBARBITONE, Method: STANDARD PLATE inactive; negative

Nc1ccccc1SCSc1ccccc1N
inactive: [1] inactive; negative | Test System: AMES SALMONELLA TYPHIMURIUM, Strain/Indicator: TA98, Metabolic Activation: RAT, LIVER, S-9, AROCLOR 1254, Method: STANDARD PLATE inactive; negative | [2] inactive; negative
active: [3] active; positive

CCOC(=O)C(C)NC(=O)C=[N+]=[N-] (configuration not stated)
active: Test System: UDS RODENT CELLS, Strain/Indicator: THY INCORP (NON-S-PHASE), Metabolic Activation: NONE, Method: AUTORADIOGRAPHY active; positive

CCCCC(C=O)CC (configuration not stated)
inactive: Test System: AMES SALMONELLA TYPHIMURIUM, Strain/Indicator: TA97, Metabolic Activation: HAMSTER, LIVER, S-9, AROCLOR 1254 (10%), Method: PREINCUBATION inactive; negative | Test System: AMES SALMONELLA TYPHIMURIUM, Strain/Indicator: TA97, Metabolic Activation: HAMSTER, LIVER, S-9, AROCLOR 1254 (30%), Method: PREINCUBATION inactive; negative | Test System: AMES SALMONELLA TYPHIMURIUM, Strain/Indicator: TA97, Metabolic Activation: NONE, Method: PREINCUBATION inactive; negative | Test System: AMES SALMONELLA TYPHIMURIUM, Strain/Indicator: TA97, Metabolic Activation: RAT, LIVER, S-9, AROCLOR 1254 (10%), Method: PREINCUBATION inactive; negative | Test System: AMES SALMONELLA TYPHIMURIUM, Strain/Indicator: TA97, Metabolic Activation: RAT, LIVER, S-9, AROCLOR 1254 (30%), Method: PREINCUBATION inactive; negative | Test System: AMES SALMONELLA TYPHIMURIUM, Strain/Indicator: TA98, Metabolic Activation: HAMSTER, LIVER, S-9, AROCLOR 1254 (10%), Method: PREINCUBATION inactive; negative | Test System: AMES SALMONELLA TYPHIMURIUM, Strain/Indicator: TA98, Metabolic Activation: HAMSTER, LIVER, S-9, AROCLOR 1254 (30%), Method: PREINCUBATION inactive; negative | [4] inactive; negative | Test System: AMES SALMONELLA TYPHIMURIUM, Strain/Indicator: TA98, Metabolic Activation: RAT, LIVER, S-9, AROCLOR 1254 (10%), Method: PREINCUBATION inactive; negative | Test System: AMES SALMONELLA TYPHIMURIUM, Strain/Indicator: TA98, Metabolic Activation: RAT, LIVER, S-9, AROCLOR 1254 (30%), Method: PREINCUBATION inactive; negative | Test System: AMES SALMONELLA TYPHIMURIUM, Strain/Indicator: TA100, Metabolic Activation: HAMSTER, LIVER, S-9, AROCLOR 1254 (10%), Method: PREINCUBATION inactive; negative | Test System: AMES SALMONELLA TYPHIMURIUM, Strain/Indicator: TA100, Metabolic Activation: HAMSTER, LIVER, S-9, AROCLOR 1254 (30%), Method: PREINCUBATION inactive; negative | [5] inactive; negative | Test System: AMES SALMONELLA TYPHIMURIUM, Strain/Indicator: TA100, Metabolic Activation: RAT, LIVER, S-9, AROCLOR 1254 (10%), Method: PREINCUBATION inactive; negative | Test System: AMES SALMONELLA TYPHIMURIUM, Strain/Indicator: TA100, Metabolic Activation: RAT, LIVER, S-9, AROCLOR 1254 (30%), Method: PREINCUBATION inactive; negative | Test System: AMES SALMONELLA TYPHIMURIUM, Strain/Indicator: TA1535, Metabolic Activation: HAMSTER, LIVER, S-9, AROCLOR 1254 (10%), Method: PREINCUBATION inactive; negative | Test System: AMES SALMONELLA TYPHIMURIUM, Strain/Indicator: TA1535, Metabolic Activation: HAMSTER, LIVER, S-9, AROCLOR 1254 (30%), Method: PREINCUBATION inactive; negative | Test System: AMES SALMONELLA TYPHIMURIUM, Strain/Indicator: TA1535, Metabolic Activation: NONE, Method: PREINCUBATION inactive; negative | Test System: AMES SALMONELLA TYPHIMURIUM, Strain/Indicator: TA1535, Metabolic Activation: RAT, LIVER, S-9, AROCLOR 1254 (10%), Method: PREINCUBATION inactive; negative | Test System: AMES SALMONELLA TYPHIMURIUM, Strain/Indicator: TA1535, Metabolic Activation: RAT, LIVER, S-9, AROCLOR 1254 (30%), Method: PREINCUBATION inactive; negative

Cc1cccc2cc3ccc4ccccc4c3nc12
inactive: Test System: AMES SALMONELLA TYPHIMURIUM, Strain/Indicator: TA97A, Metabolic Activation: NONE, Method: PREINCUBATION inactive; negative | [4] inactive; negative | [5] inactive; negative | Test System: AMES SALMONELLA TYPHIMURIUM, Strain/Indicator: TA102, Metabolic Activation: NONE, Method: PREINCUBATION inactive; negative

Cc1ccccc1NC(=O)c1csc([N+](=O)[O-])c1
active: [1] active; positive | [2] active; positive

Oc1cc2c3c(cc4cccc5ccc1c3c54)-c1ccccc1-2
inactive: [3] inactive; negative
